Results from PubChem BioAssay AID248 (DTP/NCI, 2004).
Several values for one entry are separate records, joined by “and”; a condition that tells them apart may be missing. Equal values may be shown once. Inconclusive results and toxic doses are left out. No stated cut-off is given here; in the data, active means T/C of 150% or more; inactive means T/C below 125%.

Tested on: L1210 leukemia ip in BDF1 mice, survival T/C
Assay: NCI In Vivo Anticancer Drug Screen. Data for tumor model L1210 Leukemia (intraperitoneal) in B6D2F1 (BDF1) mice
Settings: endpoint: mean survival time, higher = longer survival
Procedure, shortened: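 Ratio derived from survival: compound-dosed mice over vehicle-dosed mice, all bearing a transplantable tumor.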

[1] = dose: 100.0 mg/kg/injection, schedule: Q04DX002 (ip), vehicle: saline with Tween-80
[2] = dose: 200.0 mg/kg/injection, schedule: Q04DX002 (ip), vehicle: saline with Tween-80
[3] = dose: 400.0 mg/kg/injection, schedule: Q04DX002 (ip), vehicle: saline with Tween-80
[4] = dose: 100.0 mg/kg/injection, schedule: Q01DX009 (ip), vehicle: Klucel (hydroxypropylcellulose) (HPC)
[5] = dose: 100.0 mg/kg/injection, schedule: Q04DX003 (ip), vehicle: Klucel (hydroxypropylcellulose) (HPC)
[6] = dose: 200.0 mg/kg/injection, schedule: Q01DX009 (ip), vehicle: Klucel (hydroxypropylcellulose) (HPC)
[7] = dose: 200.0 mg/kg/injection, schedule: Q04DX003 (ip), vehicle: Klucel (hydroxypropylcellulose) (HPC)
[8] = dose: 75.0 mg/kg/injection, schedule: Q01DX001 (ip), vehicle: saline

Measured: T/C

CCOC(=O)C(=CNc1ccc(OC)cc1[N+](=O)[O-])C(=O)OCC
inactive: dose: 12.5 mg/kg/injection, schedule: Q01DX009 (ip), vehicle: saline with Tween-80 97 % of control | dose: 25.0 mg/kg/injection, schedule: Q01DX009 (ip), vehicle: saline with Tween-80 90 % of control | dose: 100.0 mg/kg/injection, schedule: Q01DX009 (ip), vehicle: saline with Tween-80 94 % of control and 90 % of control | [1] 95 % of control | dose: 200.0 mg/kg/injection, schedule: Q01DX009 (ip), vehicle: saline with Tween-80 105 % of control | [2] 88 % of control | [3] 92 % of control

c1ccc(-c2ccc([Si](c3ccccc3)(c3ccc(-c4ccccc4)cc3)c3ccc(-c4ccccc4)cc3)cc2)cc1
inactive: dose: 50.0 mg/kg/injection, schedule: Q01DX009 (ip), vehicle: Klucel (hydroxypropylcellulose) (HPC) 91 % of control | dose: 50.0 mg/kg/injection, schedule: Q04DX003 (ip), vehicle: Klucel (hydroxypropylcellulose) (HPC) 93 % of control | [4] 93 % of control | [5] 89 % of control | [6] 93 % of control | [7] 88 % of control

O=Cc1ccc2c3c(cccc13)CC2
inactive: dose: 100.0 mg/kg/injection, schedule: Q01DX001 (ip), vehicle: saline 96 % of control | dose: 200.0 mg/kg/injection, schedule: Q01DX001 (ip), vehicle: saline 101 % of control | dose: 400.0 mg/kg/injection, schedule: Q01DX001 (ip), vehicle: saline 100 % of control

C[n+]1ccc(C(=O)O)c2ccccc21
inactive: [8] 94 % of control | dose: 75.0 mg/kg/injection, schedule: Q04DX003 (ip), vehicle: acetone 92 % of control | dose: 150.0 mg/kg/injection, schedule: Q01DX001 (ip), vehicle: saline 95 % of control | dose: 150.0 mg/kg/injection, schedule: Q04DX003 (ip), vehicle: acetone 89 % of control | dose: 300.0 mg/kg/injection, schedule: Q01DX001 (ip), vehicle: saline 90 % of control

COc1ccccc1C(CC(=O)c1ccccc1)Sc1ccccc1N (stereo unspecified)
inactive: dose: 100.0 mg/kg/injection, schedule: Q01DX005 (ip), vehicle: Klucel (hydroxypropylcellulose) (HPC) 118 % of control and 89 % of control | [4] 93 % of control | dose: 130.0 mg/kg/injection, schedule: Q01DX005 (ip), vehicle: Klucel (hydroxypropylcellulose) (HPC) 97 % of control | dose: 200.0 mg/kg/injection, schedule: Q01DX005 (ip), vehicle: Klucel (hydroxypropylcellulose) (HPC) 115 % of control and 90 % of control | [6] 93 % of control | dose: 300.0 mg/kg/injection, schedule: Q01DX005 (ip), vehicle: Klucel (hydroxypropylcellulose) (HPC) 103 % of control | dose: 400.0 mg/kg/injection, schedule: Q01DX005 (ip), vehicle: Klucel (hydroxypropylcellulose) (HPC) 96 % of control and 87 % of control | dose: 400.0 mg/kg/injection, schedule: Q01DX009 (ip), vehicle: Klucel (hydroxypropylcellulose) (HPC) 86 % of control

CN(c1ccccc1Cl)c1ccccc1Cl
inactive: dose: 64.0 mg/kg/injection, schedule: Q04DX002 (ip), vehicle: saline with Tween-80 104 % of control | dose: 160.0 mg/kg/injection, schedule: Q04DX002 (ip), vehicle: saline with Tween-80 89 % of control | [3] 86 % of control

O=C(O)CNC(=O)c1cccc(Cl)c1
inactive: [1] 95 % of control | [2] 95 % of control | [3] 95 % of control

O=C(O)C1C(C(=O)O)C2(Cl)C(Cl)=C(Cl)C1(Cl)C2(Cl)Cl.[Co] (stereo unspecified)
inactive: dose: 12.5 mg/kg/injection, schedule: Q01DX009 (ip), vehicle: saline 116 % of control | dose: 25.0 mg/kg/injection, schedule: Q01DX009 (ip), vehicle: saline sonified 112 % of control | dose: 25.0 mg/kg/injection, schedule: Q01DX009 (ip), vehicle: saline 110 % of control | dose: 33.0 mg/kg/injection, schedule: Q01DX009 (ip), vehicle: saline sonified 108 % of control | dose: 50.0 mg/kg/injection, schedule: Q01DX001 (ip), vehicle: Klucel (hydroxypropylcellulose) (HPC) 98 % of control | dose: 50.0 mg/kg/injection, schedule: Q01DX009 (ip), vehicle: saline 115 % of control | dose: 75.0 mg/kg/injection, schedule: Q01DX009 (ip), vehicle: saline sonified 112 % of control | dose: 100.0 mg/kg/injection, schedule: Q01DX001 (ip), vehicle: Klucel (hydroxypropylcellulose) (HPC) 110 % of control | dose: 100.0 mg/kg/injection, schedule: Q01DX009 (ip), vehicle: saline 124 % of control | dose: 200.0 mg/kg/injection, schedule: Q01DX001 (ip), vehicle: Klucel (hydroxypropylcellulose) (HPC) 106 % of control

CC(=O)Nc1cccc(OCCCOc2cccc(C#N)c2)c1
inactive: [5] 96 % of control | [7] 101 % of control | dose: 400.0 mg/kg/injection, schedule: Q04DX003 (ip), vehicle: Klucel (hydroxypropylcellulose) (HPC) 98 % of control

Cc1cc(CCN)c(C)c2c1sc1ccccc12
inactive: [8] 89 % of control

O=C(Nc1ccccc1)c1ccc2c(c1)C(=O)N(c1ccccc1)C2=O
inactive: dose: 100.0 mg/kg/injection, schedule: Q04DX002 (ip), vehicle: saline 90 % of control | dose: 200.0 mg/kg/injection, schedule: Q04DX002 (ip), vehicle: saline 87 % of control
